Measured values: PubChem BioAssay AID1259407 (Chemical Carcinogenesis Research Information System (CCRIS), 2018)
Activity calls are given as the source filed them. How the calls were made is not given here.

System: CCRIS mutagenicity, Ames/micronucleus/aberration tests
Test: CCRIS mutagenicity studies

Q: What does the source list for `CN(C)c1ccc(Cc2ccc(N(C)C)cc2)cc1`?
A: mutagenic call (Test System: AMES SALMONELLA TYPHIMURIUM, Strain/Indicator: TA98, Metabolic Activation: HAMSTER, LIVER, S-9, AROCLOR 1254, Method: STANDARD PLATE): inactive; negative; mutagenic call (Test System: AMES SALMONELLA TYPHIMURIUM, Strain/Indicator: TA98, Metabolic Activation: HAMSTER, LIVER, S-9, Method: STANDARD PLATE): inactive; negative; mutagenic call (Test System: AMES SALMONELLA TYPHIMURIUM, Strain/Indicator: TA98, Metabolic Activation: MOUSE, LIVER, S-9, Method: STANDARD PLATE): inactive; negative; mutagenic call (Test System: AMES SALMONELLA TYPHIMURIUM, Strain/Indicator: TA98, Metabolic Activation: NONE, Method: STANDARD PLATE): inactive; negative; mutagenic call (Test System: AMES SALMONELLA TYPHIMURIUM, Strain/Indicator: TA98, Metabolic Activation: RAT, LIVER, S-9, AROCLOR 1254, Method: STANDARD PLATE): inactive; negative; mutagenic call (Test System: AMES SALMONELLA TYPHIMURIUM, Strain/Indicator: TA98, Metabolic Activation: RAT, LIVER, S-9, Method: STANDARD PLATE): inactive; negative; mutagenic call (Test System: AMES SALMONELLA TYPHIMURIUM, Strain/Indicator: TA100, Metabolic Activation: HAMSTER, LIVER, S-9, AROCLOR 1254, Method: STANDARD PLATE): inactive; negative; mutagenic call (Test System: AMES SALMONELLA TYPHIMURIUM, Strain/Indicator: TA100, Metabolic Activation: HAMSTER, LIVER, S-9, Method: STANDARD PLATE): inactive; negative; mutagenic call (Test System: AMES SALMONELLA TYPHIMURIUM, Strain/Indicator: TA100, Metabolic Activation: MOUSE, LIVER, S-9, Method: STANDARD PLATE): inactive; negative; mutagenic call (Test System: AMES SALMONELLA TYPHIMURIUM, Strain/Indicator: TA100, Metabolic Activation: NONE, Method: STANDARD PLATE): inactive; negative; mutagenic call (Test System: AMES SALMONELLA TYPHIMURIUM, Strain/Indicator: TA100, Metabolic Activation: RAT, LIVER, S-9, AROCLOR 1254, Method: STANDARD PLATE): inactive; negative; mutagenic call (Test System: AMES SALMONELLA TYPHIMURIUM, Strain/Indicator: TA100, Metabolic Activation: RAT, LIVER, S-9, Method: STANDARD PLATE): inactive; negative; mutagenic call (Test System: AMES SALMONELLA TYPHIMURIUM, Strain/Indicator: TA1535, Metabolic Activation: HAMSTER, LIVER, S-9, AROCLOR 1254, Method: STANDARD PLATE): inactive; negative; mutagenic call (Test System: AMES SALMONELLA TYPHIMURIUM, Strain/Indicator: TA1535, Metabolic Activation: HAMSTER, LIVER, S-9, Method: STANDARD PLATE): inactive; negative; mutagenic call (Test System: AMES SALMONELLA TYPHIMURIUM, Strain/Indicator: TA1535, Metabolic Activation: MOUSE, LIVER, S-9, AROCLOR 1254, Method: STANDARD PLATE): inactive; negative; mutagenic call (Test System: AMES SALMONELLA TYPHIMURIUM, Strain/Indicator: TA1535, Metabolic Activation: MOUSE, LIVER, S-9, Method: STANDARD PLATE): inactive; negative; mutagenic call (Test System: AMES SALMONELLA TYPHIMURIUM, Strain/Indicator: TA1535, Metabolic Activation: NONE, Method: STANDARD PLATE): inactive; negative; mutagenic call (Test System: AMES SALMONELLA TYPHIMURIUM, Strain/Indicator: TA1535, Metabolic Activation: RAT, LIVER, S-9, AROCLOR 1254, Method: STANDARD PLATE): inactive; negative; mutagenic call (Test System: AMES SALMONELLA TYPHIMURIUM, Strain/Indicator: TA1535, Metabolic Activation: RAT, LIVER, S-9, Method: STANDARD PLATE): inactive; negative; mutagenic call (Test System: AMES SALMONELLA TYPHIMURIUM, Strain/Indicator: TA1537, Metabolic Activation: HAMSTER, LIVER, S-9, AROCLOR 1254, Method: STANDARD PLATE): inactive; negative; mutagenic call (Test System: AMES SALMONELLA TYPHIMURIUM, Strain/Indicator: TA1537, Metabolic Activation: HAMSTER, LIVER, S-9, Method: STANDARD PLATE): inactive; negative; mutagenic call (Test System: AMES SALMONELLA TYPHIMURIUM, Strain/Indicator: TA1537, Metabolic Activation: MOUSE, LIVER, S-9, AROCLOR 1254, Method: STANDARD PLATE): inactive; negative; mutagenic call (Test System: AMES SALMONELLA TYPHIMURIUM, Strain/Indicator: TA1537, Metabolic Activation: MOUSE, LIVER, S-9, Method: STANDARD PLATE): inactive; negative; mutagenic call (Test System: AMES SALMONELLA TYPHIMURIUM, Strain/Indicator: TA1537, Metabolic Activation: NONE, Method: STANDARD PLATE): inactive; negative; mutagenic call (Test System: AMES SALMONELLA TYPHIMURIUM, Strain/Indicator: TA1537, Metabolic Activation: RAT, LIVER, S-9, AROCLOR 1254, Method: STANDARD PLATE): inactive; negative; mutagenic call (Test System: AMES SALMONELLA TYPHIMURIUM, Strain/Indicator: TA1537, Metabolic Activation: RAT, LIVER, S-9, Method: STANDARD PLATE): inactive; negative; mutagenic call (Test System: AMES SALMONELLA TYPHIMURIUM, Strain/Indicator: TA1538, Metabolic Activation: HAMSTER, LIVER, S-9, Method: STANDARD PLATE): inactive; negative; mutagenic call (Test System: AMES SALMONELLA TYPHIMURIUM, Strain/Indicator: TA1538, Metabolic Activation: MOUSE, LIVER, S-9, AROCLOR 1254, Method: STANDARD PLATE): inactive; negative; mutagenic call (Test System: AMES SALMONELLA TYPHIMURIUM, Strain/Indicator: TA1538, Metabolic Activation: MOUSE, LIVER, S-9, Method: STANDARD PLATE): inactive; negative; mutagenic call (Test System: AMES SALMONELLA TYPHIMURIUM, Strain/Indicator: TA1538, Metabolic Activation: NONE, Method: STANDARD PLATE): inactive; negative; mutagenic call (Test System: AMES SALMONELLA TYPHIMURIUM, Strain/Indicator: TA1538, Metabolic Activation: RAT, LIVER, S-9, AROCLOR 1254, Method: STANDARD PLATE): inactive; negative; mutagenic call (Test System: AMES SALMONELLA TYPHIMURIUM, Strain/Indicator: TA1538, Metabolic Activation: RAT, LIVER, S-9, Method: STANDARD PLATE): inactive; negative; mutagenic call (Test System: E. COLI, Strain/Indicator: WP2 UVRA, Metabolic Activation: HAMSTER, LIVER, S-9, AROCLOR 1254, Method: STANDARD PLATE): inactive; negative; mutagenic call (Test System: E. COLI, Strain/Indicator: WP2 UVRA, Metabolic Activation: HAMSTER, LIVER, S-9, Method: STANDARD PLATE): inactive; negative; mutagenic call (Test System: E. COLI, Strain/Indicator: WP2 UVRA, Metabolic Activation: MOUSE, LIVER, S-9, AROCLOR 1254, Method: STANDARD PLATE): inactive; negative; mutagenic call (Test System: E. COLI, Strain/Indicator: WP2 UVRA, Metabolic Activation: MOUSE, LIVER, S-9, Method: STANDARD PLATE): inactive; negative; mutagenic call (Test System: E. COLI, Strain/Indicator: WP2 UVRA, Metabolic Activation: NONE, Method: STANDARD PLATE): inactive; negative; mutagenic call (Test System: E. COLI, Strain/Indicator: WP2 UVRA, Metabolic Activation: RAT, LIVER, S-9, AROCLOR 1254, Method: STANDARD PLATE): inactive; negative; mutagenic call (Test System: E. COLI, Strain/Indicator: WP2 UVRA, Metabolic Activation: RAT, LIVER, S-9, Method: STANDARD PLATE): inactive; negative; mutagenic call (Test System: MOUSE LYMPHOMA, Strain/Indicator: L5178Y (TK+/TK-), Metabolic Activation: RAT, LIVER, S-9, AROCLOR 1254, Method: SUSPENSION/PLATE): active; positive
